Test results: the NIST ThermoML archive (doi:10.1021/je049609w)
Several values for one entry are separate records, joined by “and”; a condition that tells them apart may be missing. Equal values may be shown once. ± gives the expanded uncertainty stated by the source.

Columns and labels:
[1] = 101 kPa, Liquid
[2] = refractive index (Na D-line) (dimensionless); details: 101.33 kPa, Liquid
[3] = xn = mol fraction of the nth substance listed; details: 101 kPa, Liquid
[4] = refractive index (Na D-line) (dimensionless); xn = mol fraction of the nth substance listed; details: 101 kPa, Liquid

## Clc1ccccc1Cl [1,2-dichlorobenzene]
[1]; 298.15 K
  mass density: 1300.9 ± 1.9 kg/m3
  speed of sound: 1280 ± 7 m/s
  viscosity: 1.324 ± 0.041 mPa·s
[1]; 303.15 K
  mass density: 1295.4 ± 1.9 kg/m3
  viscosity: 1.214 ± 0.038 mPa·s
[1]; 308.15 K
  mass density: 1289.7 ± 2 kg/m3
  viscosity: 1.105 ± 0.035 mPa·s
[2]; 298.15 K
  refractive index: 1.5499 ± 0.0024
[2]; 303.15 K
  refractive index: 1.5476 ± 0.0024
[2]; 308.15 K
  refractive index: 1.545 ± 0.0024

## C1COCCO1 [1,4-dioxane]
[1]; 298.15 K
  mass density: 1028.6 ± 1.4 kg/m3
  speed of sound: 1345 ± 7 m/s
  viscosity: 1.196 ± 0.038 mPa·s and 1.195 ± 0.038 mPa·s
[1]; 303.15 K
  mass density: 1022.9 ± 1.5 kg/m3
  viscosity: 1.102 ± 0.035 mPa·s and 1.095 ± 0.035 mPa·s
[1]; 308.15 K
  mass density: 1017.2 ± 1.5 kg/m3
  viscosity: 1.008 ± 0.032 mPa·s
[2]; 298.15 K
  refractive index: 1.4203 ± 0.0024
[2]; 303.15 K
  refractive index: 1.4164 ± 0.0024
[2]; 308.15 K
  refractive index: 1.4145 ± 0.0024

## OCCCl [1-chloro-2-hydroxyethane]
[1]; 298.15 K
  mass density: 1200.9 ± 1.7 kg/m3
  speed of sound: 1358 ± 8 m/s
  viscosity: 3.104 ± 0.091 mPa·s
[1]; 303.15 K
  mass density: 1192.5 ± 1.7 kg/m3
  viscosity: 2.669 ± 0.079 mPa·s
[1]; 308.15 K
  mass density: 1187.1 ± 1.8 kg/m3
  viscosity: 2.347 ± 0.07 mPa·s
[2]; 298.15 K
  refractive index: 1.4411 ± 0.0024
[2]; 303.15 K
  refractive index: 1.438 ± 0.0024
[2]; 308.15 K
  refractive index: 1.4326 ± 0.0024

## CC(=O)N(C)C [N,N-dimethylethanamide]
[1]; 298.15 K
  mass density: 946.8 ± 1.2 kg/m3
  speed of sound: 1458 ± 8 m/s
  viscosity: 1.261 ± 0.039 mPa·s
[1]; 303.15 K
  mass density: 942.1 ± 1.2 kg/m3
  viscosity: 1.154 ± 0.036 mPa·s
[1]; 308.15 K
  mass density: 937.5 ± 1.3 kg/m3
  viscosity: 1.047 ± 0.033 mPa·s
[2]; 298.15 K
  refractive index: 1.4363 ± 0.0024
[2]; 303.15 K
  refractive index: 1.4342 ± 0.0024
[2]; 308.15 K
  refractive index: 1.432 ± 0.0024

## CC(=O)N(C)C [N,N-dimethylethanamide] + C1COCCO1
[3]; 298.15 K, x2 = 0
  mass density: 946.8 ± 4.7 kg/m3
  speed of sound: 1458 ± 8 m/s
  viscosity: 1.261 ± 0.039 mPa·s
[3]; 298.15 K, x2 = 0.1121
  mass density: 954.8 ± 4.8 kg/m3
  speed of sound: 1447 ± 8 m/s
  viscosity: 1.255 ± 0.039 mPa·s
[3]; 298.15 K, x2 = 0.2162
  mass density: 962.4 ± 4.8 kg/m3
  speed of sound: 1436 ± 8 m/s
  viscosity: 1.248 ± 0.039 mPa·s
[3]; 298.15 K, x2 = 0.3203
  mass density: 970 ± 4.9 kg/m3
  speed of sound: 1424 ± 8 m/s
  viscosity: 1.242 ± 0.039 mPa·s
[3]; 298.15 K, x2 = 0.4222
  mass density: 977.9 ± 4.9 kg/m3
  speed of sound: 1413 ± 8 m/s
  viscosity: 1.235 ± 0.039 mPa·s
[3]; 298.15 K, x2 = 0.5242
  mass density: 985.9 ± 5 kg/m3
  speed of sound: 1401 ± 8 m/s
  viscosity: 1.228 ± 0.038 mPa·s
[3]; 298.15 K, x2 = 0.6219
  mass density: 993.9 ± 5 kg/m3
  speed of sound: 1390 ± 8 m/s
  viscosity: 1.222 ± 0.038 mPa·s
[3]; 298.15 K, x2 = 0.7198
  mass density: 1002.1 ± 5.1 kg/m3
  speed of sound: 1379 ± 8 m/s
  viscosity: 1.215 ± 0.038 mPa·s
[3]; 298.15 K, x2 = 0.8157
  mass density: 1010.5 ± 5.1 kg/m3
  speed of sound: 1367 ± 8 m/s
  viscosity: 1.209 ± 0.038 mPa·s
[3]; 298.15 K, x2 = 0.9116
  mass density: 1019.2 ± 5.2 kg/m3
  speed of sound: 1356 ± 8 m/s
  viscosity: 1.202 ± 0.038 mPa·s
[3]; 303.15 K, x2 = 0
  mass density: 942.1 ± 4.9 kg/m3
  viscosity: 1.154 ± 0.036 mPa·s
[3]; 303.15 K, x2 = 0.1121
  mass density: 950.1 ± 5 kg/m3
  viscosity: 1.149 ± 0.036 mPa·s
[3]; 303.15 K, x2 = 0.2162
  mass density: 957.6 ± 5 kg/m3
  viscosity: 1.144 ± 0.036 mPa·s
[3]; 303.15 K, x2 = 0.3203
  mass density: 965.2 ± 5.1 kg/m3
  viscosity: 1.138 ± 0.036 mPa·s
[3]; 303.15 K, x2 = 0.4222
  mass density: 972.9 ± 5.1 kg/m3
  viscosity: 1.133 ± 0.036 mPa·s
[3]; 303.15 K, x2 = 0.5242
  mass density: 980.9 ± 5.2 kg/m3
  viscosity: 1.128 ± 0.036 mPa·s
[3]; 303.15 K, x2 = 0.6219
  mass density: 988.8 ± 5.2 kg/m3
  viscosity: 1.123 ± 0.035 mPa·s
[3]; 303.15 K, x2 = 0.7198
  mass density: 996.8 ± 5.3 kg/m3
  viscosity: 1.117 ± 0.035 mPa·s
[3]; 303.15 K, x2 = 0.8157
  mass density: 1005.3 ± 5.3 kg/m3
  viscosity: 1.105 ± 0.035 mPa·s
[3]; 303.15 K, x2 = 0.9116
  mass density: 1013.7 ± 5.4 kg/m3
  viscosity: 1.099 ± 0.035 mPa·s
[3]; 308.15 K, x2 = 0
  mass density: 937.5 ± 5.1 kg/m3
  viscosity: 1.047 ± 0.033 mPa·s
[3]; 308.15 K, x2 = 0.1121
  mass density: 945.4 ± 5.2 kg/m3
  viscosity: 1.043 ± 0.033 mPa·s
[3]; 308.15 K, x2 = 0.2162
  mass density: 952.9 ± 5.2 kg/m3
  viscosity: 1.039 ± 0.033 mPa·s
[3]; 308.15 K, x2 = 0.3203
  mass density: 960.3 ± 5.3 kg/m3
  viscosity: 1.035 ± 0.033 mPa·s
[3]; 308.15 K, x2 = 0.4222
  mass density: 968 ± 5.3 kg/m3
  viscosity: 1.031 ± 0.033 mPa·s
[3]; 308.15 K, x2 = 0.5242
  mass density: 975.9 ± 5.4 kg/m3
  viscosity: 1.027 ± 0.033 mPa·s
[3]; 308.15 K, x2 = 0.6219
  mass density: 983.6 ± 5.4 kg/m3
  viscosity: 1.023 ± 0.033 mPa·s
[3]; 308.15 K, x2 = 0.7198
  mass density: 991.6 ± 5.5 kg/m3
  viscosity: 1.019 ± 0.033 mPa·s
[3]; 308.15 K, x2 = 0.8157
  mass density: 999.8 ± 5.5 kg/m3
  viscosity: 1.016 ± 0.033 mPa·s
[3]; 308.15 K, x2 = 0.9116
  mass density: 1008.2 ± 5.6 kg/m3
  viscosity: 1.012 ± 0.033 mPa·s
[4]; 298.15 K, x2 = 0
  refractive index: 1.4363 ± 0.0024
[4]; 298.15 K, x2 = 0.1121
  refractive index: 1.4346 ± 0.0024
[4]; 298.15 K, x2 = 0.2162
  refractive index: 1.4328 ± 0.0024
[4]; 298.15 K, x2 = 0.3203
  refractive index: 1.431 ± 0.0024
[4]; 298.15 K, x2 = 0.4222
  refractive index: 1.4293 ± 0.0024
[4]; 298.15 K, x2 = 0.5242
  refractive index: 1.4275 ± 0.0024
[4]; 298.15 K, x2 = 0.6219
  refractive index: 1.4259 ± 0.0024
[4]; 298.15 K, x2 = 0.7198
  refractive index: 1.4242 ± 0.0024
[4]; 298.15 K, x2 = 0.8157
  refractive index: 1.4226 ± 0.0024
[4]; 298.15 K, x2 = 0.9116
  refractive index: 1.421 ± 0.0024
[4]; 303.15 K, x2 = 0
  refractive index: 1.4342 ± 0.0024
[4]; 303.15 K, x2 = 0.1121
  refractive index: 1.4324 ± 0.0024
[4]; 303.15 K, x2 = 0.2162
  refractive index: 1.4306 ± 0.0024
[4]; 303.15 K, x2 = 0.3203
  refractive index: 1.4287 ± 0.0024
[4]; 303.15 K, x2 = 0.4222
  refractive index: 1.4269 ± 0.0024
[4]; 303.15 K, x2 = 0.5242
  refractive index: 1.4252 ± 0.0024
[4]; 303.15 K, x2 = 0.6219
  refractive index: 1.4234 ± 0.0024
[4]; 303.15 K, x2 = 0.7198
  refractive index: 1.4226 ± 0.0024
[4]; 303.15 K, x2 = 0.8157
  refractive index: 1.421 ± 0.0024
[4]; 303.15 K, x2 = 0.9116
  refractive index: 1.4195 ± 0.0024
[4]; 308.15 K, x2 = 0
  refractive index: 1.432 ± 0.0024
[4]; 308.15 K, x2 = 0.1121
  refractive index: 1.4302 ± 0.0024
[4]; 308.15 K, x2 = 0.2162
  refractive index: 1.4284 ± 0.0024
[4]; 308.15 K, x2 = 0.3203
  refractive index: 1.4264 ± 0.0024
[4]; 308.15 K, x2 = 0.4222
  refractive index: 1.4246 ± 0.0024
[4]; 308.15 K, x2 = 0.5242
  refractive index: 1.4228 ± 0.0024
[4]; 308.15 K, x2 = 0.6219
  refractive index: 1.421 ± 0.0024
[4]; 308.15 K, x2 = 0.7198
  refractive index: 1.4191 ± 0.0024
[4]; 308.15 K, x2 = 0.8157
  refractive index: 1.4174 ± 0.0024
[4]; 308.15 K, x2 = 0.9116
  refractive index: 1.4157 ± 0.0024

## CCCCO [butan-1-ol]
[1]; 298.15 K
  mass density: 805.8 ± 1 kg/m3
  speed of sound: 1237 ± 7 m/s
  viscosity: 2.564 ± 0.076 mPa·s
[1]; 303.15 K
  mass density: 802 ± 1.1 kg/m3
  viscosity: 2.245 ± 0.067 mPa·s
[1]; 308.15 K
  mass density: 798 ± 1.1 kg/m3
  viscosity: 1.981 ± 0.06 mPa·s
[2]; 298.15 K
  refractive index: 1.3983 ± 0.0024
[2]; 303.15 K
  refractive index: 1.3955 ± 0.0024
[2]; 308.15 K
  refractive index: 1.3937 ± 0.0024

## CCCCO [butan-1-ol] + C1COCCO1
[3]; 298.15 K, x2 = 0
  mass density: 805.8 ± 1 kg/m3
  speed of sound: 1237 ± 7 m/s
  viscosity: 2.564 ± 0.076 mPa·s
[3]; 303.15 K, x2 = 0
  mass density: 802 ± 1.1 kg/m3
  viscosity: 2.245 ± 0.067 mPa·s
[3]; 308.15 K, x2 = 0
  mass density: 798 ± 1.1 kg/m3
  viscosity: 1.981 ± 0.06 mPa·s
[4]; 298.15 K, x2 = 0
  refractive index: 1.3983 ± 0.0024
[4]; 303.15 K, x2 = 0
  refractive index: 1.3955 ± 0.0024
[4]; 308.15 K, x2 = 0
  refractive index: 1.3937 ± 0.0024

## CCOC(=O)CC(=O)OCC [diethyl 1,3-propanedioate]
[1]; 298.15 K
  mass density: 1049.6 ± 1.4 kg/m3
  speed of sound: 1304 ± 7 m/s
  viscosity: 1.941 ± 0.059 mPa·s
[1]; 303.15 K
  mass density: 1044.2 ± 1.5 kg/m3
  viscosity: 1.755 ± 0.053 mPa·s
[1]; 308.15 K
  mass density: 1038.8 ± 1.5 kg/m3
  viscosity: 1.602 ± 0.049 mPa·s
[2]; 298.15 K
  refractive index: 1.4132 ± 0.0024
[2]; 303.15 K
  refractive index: 1.4108 ± 0.0024
[2]; 308.15 K
  refractive index: 1.4085 ± 0.0024
